Experimental data taken from patent publication US5219873A, “Compounds of 1,2,5,6-tetrahydropyridine which are useful as cholinergic agents” (Roussel UCLAF, priority 1987, dated 1993).
Like-named read-outs stand apart in the source and are kept apart here.

How the values were obtained:
[1] = Hypothermic activity, male mice (body temperature); type: in vivo, mice (CD1 Charles Rivers); details: for ED (-1 C body temperature): Mus musculus, male mice, read-out: Effective dose (-1° C.)
Experimental: (§1) The products have been utilized in the hydrochloride form.
The test is carried out on male mice (CD1 Charles Rivers), weighing 25-30 g, fasting for 6 hours.
The temperature of the body is noted by means of a thermocouple placed in the rectum to about 1.5 cm and connected to an electric temperature recorder. […]
The degree of hypothermia is evaluated as the difference between the treated animals and the controls, and the dose necessary to reduce the body temperature by 1° C. is determined.
The duration of action of the products has been evaluated by using the dose which reduces the body temperature by 1° to 1.5° C.

[2] = intravenous route; cited from earlier work
[3] = test system: central cholinergic system; details: cited from earlier work
[4] = Diarrhoeic activity, oral, male mice; type: in vivo, mice (CD1, Charles Rivers); details: Mus musculus, read-out: ED50 (dose which caused a diarrhoea in 50% of the animals)
Experimental: as §1
The test is carried out on male mice (CD1, Charles Rivers) weighing 25 to 30 g, fasting for 6 hours.
The control animals receive only the excipient.
After treatment, the animals are put separately in cages the base of which is covered with blotting paper and are put under observation for 30, 60, 120 and 180 minutes.
The sheets of absorbent paper are changed after each observation.
1: feces slightly soft with or without humid aureola.
2: feces slightly soft with presence of a well defined humid circle.
3: feces soft with presence of a large humid circle.
4: feces without consistency with presence of a very large humid circle.

[5] = test system: ileum isolated from guinea-pig; assay: Test on ileum isolated from guinea-pig (contraction, agonist activity); type: cell-based; details: Cavia porcellus, Tyrode's solution, 37° C., read-out: pD2 (negative logarithm of the dose which produces 50% of the maximum effect) (converted)
Experimental: as §1
Pieces of the ileum are removed from guinea-pigs killed by decapitation. The isolated ileum is placed in 10 cm^3 of Tyrode's solution at 37° C. and aerated with a mixture of oxygen (95%) and carbon dioxide gas (5%). The contractions due to the products are recorded by means of a detector connected to a polygraph. The products to be tested are added at concentrations between 1.10^-3 M/l and 1.10^-8 M/l.
The products presenting a contraction effect are tested relative to atropine and hexamethonium to establish whether the activity is of the "muscarine" or "nicotine" type.
The agonist activity is expressed in pD2 (negative logarithm of the dose which produces 50% of the maximum effect.

[6] = Acute toxicity, oral, male mice; design: species or system mice (CD1 Charles Rivers); details: mouse, in vivo, mortality during 7 days
Experimental: as §1
The test was carried out on male mice (CD1 Charles Rivers) of 22 to 24 g, fasting for 16 hours. […] The mortality is noted during the 7 days following the treatment.

| SMILES | ED50 [4] [mg/kg] | EC50 [5] [µM] | ED (-1 C body temperature) ([1]; po, per os) [mg/kg] | ED (-1 C body temperature) ([1]; sc, s.c.) [mg/kg] | LD50 at 168 h [6] [mg/kg] | Variation of the Body Temperature ([1]; 1 mg/kg p.o., 0 min) | Variation of the Body Temperature ([1]; 1 mg/kg p.o., 30 min) [°C] | Variation of the Body Temperature ([1]; 1 mg/kg p.o., 60 min) [°C] | Variation of the Body Temperature ([1]; 1 mg/kg p.o., 120 min) [°C] | Variation of the Body Temperature ([1]; 1 mg/kg p.o., 180 min) [°C] | Variation of the Body Temperature ([1]; 1 mg/kg s.c., 0 min) | Variation of the Body Temperature ([1]; 1 mg/kg s.c., 30 min) [°C] | Variation of the Body Temperature ([1]; 1 mg/kg s.c., 60 min) [°C] | Variation of the Body Temperature ([1]; 1 mg/kg s.c., 120 min) | Variation of the Body Temperature ([1]; 1 mg/kg s.c., 180 min) | further results |
| --- | --- | --- | --- | --- | --- | --- | --- | --- | --- | --- | --- | --- | --- | --- | --- | --- |
| COC(=O)C1=CCCN(C)C1 [Arecoline HBr, reference compound] |  |  |  |  |  |  |  |  |  |  |  |  |  |  |  | Variation of the Body Temperature ([1]; 3.5 mg/kg s.c., 0 min): -0.1 °C; Variation of the Body Temperature ([1]; 3.5 mg/kg s.c., 30 min): -1.5 °C; Variation of the Body Temperature ([1]; 3.5 mg/kg s.c., 60 min): -0.1 °C; Variation of the Body Temperature ([1]; 3.5 mg/kg s.c., 120 min): +0.2 °C; Variation of the Body Temperature ([1]; 3.5 mg/kg s.c., 180 min): +0.2 °C; Variation of the Body Temperature ([1]; 200 mg/kg p.o., 0 min): +0.1 °C; Variation of the Body Temperature ([1]; 200 mg/kg p.o., 30 min): -1.1 °C; Variation of the Body Temperature ([1]; 200 mg/kg p.o., 60 min): -1.0 °C; Variation of the Body Temperature ([1]; 200 mg/kg p.o., 120 min): -0.2 °C; Variation of the Body Temperature ([1]; 200 mg/kg p.o., 180 min): -0.1 °C |
| COC(=O)C1=CCCN(C)C1 [Arecoline, reference compound] | 35 | 0.331 | 194 | 3 |  |  |  |  |  |  |  |  |  |  |  | effect on patients having a memory defect [2]: positive effect on patients having a memory defect; activity by oral route [3]: very weak activity by oral route |
| CC(=NO)C1=CCCNC1 [Example 1, 3-acetyl-1,2,5,6-tetrahydropyridine-oxime] | 5 | 5.62 | 9 | 11 | 350 |  |  |  |  |  |  |  |  |  |  | Variation of the Body Temperature ([1]; 10 mg/kg p.o., 0 min): 0 °C; Variation of the Body Temperature ([1]; 10 mg/kg p.o., 30 min): -0.7 °C; Variation of the Body Temperature ([1]; 10 mg/kg p.o., 60 min): -1.0 °C; Variation of the Body Temperature ([1]; 10 mg/kg p.o., 120 min): -0.2 °C; Variation of the Body Temperature ([1]; 10 mg/kg p.o., 180 min): +0.1 °C; Variation of the Body Temperature ([1]; 10 mg/kg s.c., 0 min): 0 °C; Variation of the Body Temperature ([1]; 10 mg/kg s.c., 30 min): -0.6 °C; Variation of the Body Temperature ([1]; 10 mg/kg s.c., 60 min): -0.8 °C; Variation of the Body Temperature ([1]; 10 mg/kg s.c., 120 min): -0.2 °C; Variation of the Body Temperature ([1]; 10 mg/kg s.c., 180 min): 0 °C |
| CON=C(C)C1=CCCN(C)C1 [Example 2, 1-methyl-3-acetyl-1,2,5,6-tetrahydropyridine-O-methyl-oxime] | > 100 | 14.1 | 12 | 25 | 350 |  |  |  |  |  |  |  |  |  |  | Variation of the Body Temperature ([1]; 20 mg/kg p.o., 0 min): +0.1 °C; Variation of the Body Temperature ([1]; 20 mg/kg p.o., 30 min): -1.3 °C; Variation of the Body Temperature ([1]; 20 mg/kg p.o., 60 min): -1.3 °C; Variation of the Body Temperature ([1]; 20 mg/kg p.o., 120 min): -0.9 °C; Variation of the Body Temperature ([1]; 20 mg/kg p.o., 180 min): 0 °C; Variation of the Body Temperature ([1]; 40 mg/kg s.c., 0 min): +0.1 °C; Variation of the Body Temperature ([1]; 40 mg/kg s.c., 30 min): -1.0 °C; Variation of the Body Temperature ([1]; 40 mg/kg s.c., 60 min): -1.4 °C; Variation of the Body Temperature ([1]; 40 mg/kg s.c., 120 min): -1.1 °C; Variation of the Body Temperature ([1]; 40 mg/kg s.c., 180 min): -0.8 °C |
| CON=C(C)C1=CCCNC1 [Example 3, 3-acetyl-1,2,5,6-tetrahydropyridine-O-methyl-oxime] | 0.85 | 0.0316 | 0.87 | 0.91 | 125 | +0.1 °C | -1.1 | -1.0 | -0.1 | -0.1 | +0.1 °C | -1.0 | -0.8 | +0.1 °C | +0.1 °C |  |
| CON=C(C)C1=CCCN(O)C1 [Example 12, 1-N-hydroxyl-3-acetyl-1,2,5,6-tetrahydropyridine-O-methyl-oxime] | 1 | 4.07 | 0.77 | 0.72 | 175 | 0 °C | -1.3 | -1.1 | 0 | 0 | -0.1 °C | -1.4 | -1.3 | +0.1 °C | 0 °C |  |
